{
  "source": "patent US20160331721A1",
  "about": "“COMPOSITION FOR ALLEVIATING AND PREVENTING ALZHEIMER'S DISEASE” (Sunway Biotech Co., LTD, priority 2015, published 2016)",
  "key": {"[1]": {"system": "Aβ-induced AD (Alzheimer's disease) rats", "assay": "Spatial probe test in water maze (Day 26)", "assay_type": "in vivo, SD rats", "description": "(§1) Therefore, above descriptions have completely introduce the fabricating way for this Alzheimer's disease alleviating and preventing composition. Next, a variety of experimental data will be presented in following paragraphs for proving the practicability of the Alzheimer's disease alleviating and preventing composition. Please refer to FIG. 4, which shoes an experiment grouping table.\n(§2) Please continuously refer to FIG. 5, where a daily schedule diagram for the animal experiments are provided.\nNext, spatial probe test is completed on Day 26. During the spatial probe test, the rest platform is removed out of the water tank. To carry out the spatial probe test, the test rat is put on the starting point 1 located in quadrant I; and then, letting the rat swim in the water tank for 90 seconds so as to record the rat's swimming route as well as the time for staying in quadrant IV. Please refer to FIG. 8, which provides swimming route records of the test rats as working the spatial navigation test."}, "[2]": {"system": "Aβ-induced AD (Alzheimer's disease) rats", "assay": "Working memory test in water maze (Day 27)", "assay_type": "in vivo, SD rats", "settings": "FIG. 10, compared to Aβ group", "description": "as §1, §2"}},
  "data": [
    {"smiles": "COc1cc2c(cc1OC)C(=O)C(CC1CCN(Cc3ccccc3)CC1)C2", "note": "(stereo not drawn) [Donepezil]", "values": [
      {"measurement": "swimming route in spatial probe test", "setting": "[1]; FIG. 8, compared to Aβ group (non-directional swimming), rest platform removed", "result": "directly swim into the quadrant IV"},
      {"measurement": "time spent for searching target quadrant", "setting": "[1]; FIG. 9, compared to Aβ group, target quadrant IV", "result": "the Aβ group spend more time to find the target quadrant"},
      {"measurement": "escape latency, working memory test", "setting": "[2]", "result": "the Aβ group spend more time to find the target quadrant"}
    ]}
  ]
}
